What was measured:
[1] = for influence of drug on properties of the dispersions: 0.3% drug, GMOrphic/12% P407, non-autoclaved and autoclaved; for effect on lattice constant of cubic phase, autoclaved dispersions / effect on particle size of autoclaved dispersions: autoclaved 121° C., 15+5 min; for influence on non-autoclaved dispersions: chloramphenicol 0.3, 1 and 2%, miconazole 0.3 and 1%
Method: All drug concentrations are indicated relative to the sum of monoglyceride and poloxamer. A drug-free dispersion was prepared and investigated as a reference.
All dispersions were autoclaved at 121° C. for 15+5 min. (allowing for temperature equilibration in the autoclave) and their properties were compared to that of the corresponding non-autoclaved dispersions.

[2] = Active agent loading of cubic particles; type: physicochemical
Method: To the dispersions is added the cationic peptide desmopressin to a concentration of 1 mg/ml. The dispersion is allowed to equilibrate for 60 minutes at room temperature and reanalyzed for particle size and optionally phase behaviour. The particle size is not affected as determined using laser diffraction.
A dispersion of cubic particles of formulation GMO/OA/F-127 (84.5:4.5:10) was prepared as in Example 24. The steroid hormone progesterone was incubated with the cubic particles at room temperature as described for desmopressin in Example 22. The equilibrium loading level was 3% by weight.
The above method was repeated by the active agent progesterone was included in the aqueous phase prior to the homogenisation and heat treatment steps. The loading level was again examined and established to be 18 wt %. The effect upon the particle size distribution was minimal.

Row | SMILES | influence of drug on properties of the dispersions [1] | effect on lattice constant of cubic phase, autoclaved dispersions [1] | effect on particle size of autoclaved dispersions [1] | influence on non-autoclaved dispersions [1] | other results
1 | COC1=C(OC)C(=O)C(C/C=C(\C)CC/C=C(\C)CC/C=C(\C)CC/C=C(\C)CC/C=C(\C)CC/C=C(\C)CC/C=C(\C)CC/C=C(\C)CC/C=C(\C)CCC=C(C)C)=C(C)C1=O [Ubidecarenone, ubidecarenone] | did not influence the properties of the resulting dispersions | – | – | – | –
2 | CCCCC(=O)O[C@]1(C(=O)CO)[C@@H](C)C[C@H]2[C@@H]3CCC4=CC(=O)C=C[C@]4(C)[C@@]3(F)[C@@H](O)C[C@@]21C [betamethasone-17-valerate] | – | – | – | – | influence of drug on general behaviour of the dispersions ([1]; 0.3, 1 or 2% drug): no influence on the general behaviour of the dispersions
3 | O=C(N[C@H](CO)[C@H](O)c1ccc([N+](=O)[O-])cc1)C(Cl)Cl [chloramphenicol] | – | slight increase in lattice constant | particle sizes increased distinctly with drug concentration | no influence on the non-autoclaved dispersions | –
4 | Clc1ccc(COC(Cn2ccnc2)c2ccc(Cl)cc2Cl)c(Cl)c1 (centres unmarked) [miconazole] | – | decreased slightly | slightly larger (0.3%) and distinctly larger (1%) particle sizes | no influence on the non-autoclaved dispersions | –
5 | CC(=O)[C@H]1CC[C@H]2[C@@H]3CCC4=CC(=O)CC[C@]4(C)[C@H]3CC[C@]12C [progesterone] | – | – | – | – | loading level ([2]; included in aqueous phase prior to homogenisation and heat treatment, GMO/OA/F-127 (84.5:4.5:10)): 18 wt %; equilibrium loading level ([2]; incubated with GMO/OA/F-127 (84.5:4.5:10) cubic particles at room temperature): 3 % by weight
6 | CC(=O)Oc1c(C)c(C)c2c(c1C)CCC(C)(CCC[C@H](C)CCC[C@H](C)CCCC(C)C)O2 (some centres unmarked) [tocopherol acetate] | did not influence the properties of the resulting dispersions | – | – | – | –

— patent publication US9522377B2, “Method for improving the properties of amphiphile particles” (CAMURUS AB, priority 2003, dated 2016)
